Results: patent publication US20250250230A1, “HETEROCYCLIC COMPOUND” (TAKEDA PHARMACEUTICAL COMPANY LIMITED, priority 2022, published 2025)

Each compound was assayed against T1, human orexin type 2 receptor (Homo sapiens, UniProt O43614) (assay: Measurement of orexin type 2 receptor agonist activity (calcium fluorescence, Fluo-4 AM, FDSS)). Settings: test compound 3 μM; CHO cells expressing human OX2 receptor; DMSO = 0%, orexin A (human) = 100%.
T1 construct: expressed in transfected cells
T1 sequence (O43614 1-444): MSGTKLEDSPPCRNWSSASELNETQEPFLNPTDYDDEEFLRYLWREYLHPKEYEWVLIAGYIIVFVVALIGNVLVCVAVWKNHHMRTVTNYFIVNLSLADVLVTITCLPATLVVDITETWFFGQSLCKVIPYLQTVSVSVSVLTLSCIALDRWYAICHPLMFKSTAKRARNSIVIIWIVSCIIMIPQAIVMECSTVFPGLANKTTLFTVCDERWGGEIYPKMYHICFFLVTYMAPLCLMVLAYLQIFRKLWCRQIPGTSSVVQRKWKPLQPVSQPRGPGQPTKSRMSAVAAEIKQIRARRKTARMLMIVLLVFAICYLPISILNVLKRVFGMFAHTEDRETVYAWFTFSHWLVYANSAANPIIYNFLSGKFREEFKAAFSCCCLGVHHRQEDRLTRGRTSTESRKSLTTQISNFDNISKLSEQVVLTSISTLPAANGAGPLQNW
Assay type: cell-based
Outline: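 Agonist response scaled between vehicle (0%) and human orexin A at 10 nM final (100%), from 2-min kinetic Fluo-4 fluorescence reads. Stable hOX2R CHO-K1 clone, dye-loaded in HBSS/20 mM HEPES/0.1% BSA with 1.25 mM probenecid before compound addition.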

SMILES	OX2R agonist activity (3 μM, %)
CN(C)S(=O)(=O)NC[C@@H]1CCN1C(=O)C1CC1c1c(F)cccc1-c1c(F)cccc1F (stereo partly drawn) [Example 314, N,N-dimethyl-N′-({(2S)-1-[(1R,2R)-2-(2′,3,6′-trifluoro[1,1′-biphenyl]-2-yl)cyclopropane-1-carbonyl]azetidin-2-yl}methyl)sulfuric diamide, or N,N-dimethyl-N′-({(2S)-1-[(1S,2S)-2-(2′,3,6′-trifluoro[1,1′-biphenyl]-2-yl)cyclopropane-1-carbonyl]azetidin-2-yl}methyl)sulfuric diamide]	99%
Cc1nnc(C2(NS(C)(=O)=O)CCN(C(=O)[C@@H]3C[C@@]3(F)c3ccccc3-c3c(F)cccc3F)C2)o1 (mixture of isomers) [Example 422, a mixture of N-[(3R)-1-[(1S,2S)-2-(2′,6′-difluoro[1,1′-biphenyl]-2-yl)-2-fluorocyclopropane-1-carbonyl]-3-(5-methyl-1,3,4-oxadiazol-2-yl)pyrrolidin-3-yl]methanesulfonamide and N-[(3S)-1-[(1S,2S)-2-(2′,6′-difluoro[1,1′-biphenyl]-2-yl)-2-fluorocyclopropane-1-carbonyl]-3-(5-methyl-1,3,4-oxadiazol-2-yl)pyrrolidin-3-yl]methanesulfonamide]	75%
CCS(=O)(=O)NC1CCCN(C(=O)C2CC2c2ccccc2-c2c(F)cccc2F)CC1 (racemic) [Example 112, a mixture of rac-N-{(4R)-1-[(1R,2R)-2-(2′,6′-difluoro[1,1′-biphenyl]-2-yl)cyclopropane-1-carbonyl]azepan-4-yl}ethanesulfonamide and rac-N-{(4S)-1-[(1R,2R)-2-(2′,6-difluoro[1,1′-biphenyl]-2-yl)cyclopropane-1-carbonyl]azepan-4-yl}ethanesulfonamide]	101%
CS(=O)(=O)NC1CCCN(C(=O)C2CC2c2sccc2-c2c(F)cccc2F)CC1 (racemic) [Example 221, a mixture of rac-N-[(4R)-1-{(1R,2R)-2-[3-(2,6-difluorophenyl)thiophen-2-yl]cyclopropane-1-carbonyl}azepan-4-yl]methanesulfonamide and rac-N-[(4S)-1-{(1R,2R)-2-[3-(2,6-difluorophenyl)thiophen-2-yl]cyclopropane-1-carbonyl}azepan-4-yl]methanesulfonamide]	107%
CO[C@@H]1CCN(C(=O)[C@@H]2C[C@H]2c2ccccc2-c2c(F)cccc2F)C[C@H]1NS(C)(=O)=O [Example 350, N-{(3R,4R)-1-[(1R,2R)-2-(2′,6′-difluoro[1,1′-biphenyl]-2-yl)cyclopropane-1-carbonyl]-4-methoxypiperidin-3-yl}methanesulfonamide]	102%
CCS(=O)(=O)NC[C@@H]1[C@@H](F)CN1C(=O)[C@@H]1C[C@@]1(F)c1ccccc1-c1c(F)cccc1F [Example 414, N-({(2R,3S)-1-[(1S,2S)-2-(2′,6′-difluoro[1,1′-biphenyl]-2-yl)-2-fluorocyclopropane-1-carbonyl]-3-fluoroazetidin-2-yl}methyl)ethanesulfonamide]	101%
C[C@H](NS(=O)(=O)C1CC1)[C@@H]1CCN1C(=O)[C@@H]1C[C@@]1(F)c1ccccc1-c1c(F)cccc1F [Example 387, N-[(1S)-1-{(2S)-1-[(1S,2S)-2-(2′,6′-difluoro[1,1′-biphenyl]-2-yl)-2-fluorocyclopropane-1-carbonyl]azetidin-2-yl}ethyl]cyclopropanesulfonamide]	99%
CN(C)S(=O)(=O)NCC1CCN1C(=O)C1CC1c1ccccc1-c1c(F)cccc1F (racemic) [Example 204, a mixture of rac-N′-({(2R)-1-[(1R,2R)-2-(2′,6′-difluoro[1,1′-biphenyl]-2-yl)cyclopropane-1-carbonyl]azetidin-2-yl}methyl)-N,N-dimethylsulfuric diamide and rac-N′-({(2S)-1-[(1R,2R)-2-(2′,6′-difluoro[1,1′-biphenyl]-2-yl)cyclopropane-1-carbonyl]azetidin-2-yl}methyl)-N,N-dimethysulfuric diamide]	96%
CS(=O)(=O)NC[C@H]1[C@H](CF)CN1C(=O)[C@@H]1C[C@@]1(F)c1ccccc1-c1c(F)cccc1F [Example 400, N-{[(2R,3R)-1-[(1S,2S)-2-(2′,6′-difluoro[1,1′-biphenyl]-2-yl)-2-fluorocyclopropane-1-carbonyl]-3-(fluoromethyl)azetidin-2-yl]methyl}methanesulfonamide]	99%
CS(=O)(=O)NC1CCCN(C(=O)C2CC2c2c(F)cccc2-c2c(F)cccc2F)C1 (stereo not drawn) [Example 211, N-{1-[2-(2′-3,6′-trifluoro[1,1′-biphenyl]-2-yl)cyclopropane-1-carbonyl]piperidin-3-yl}methanesulfonamide optical isomer]	105%
CS(=O)(=O)N[C@H]1CCN(C(=O)[C@@H]2C[C@H]2c2ccccc2-c2c(F)cccc2F)C1 [Example 23, N-{(3S)-1-[(1R,2R)-2-(2′,6′-difluoro[1,1′-biphenyl]-2-yl)cyclopropane-1-carbonyl]pyrrolidin-3-yl}methanesulfonamide]	105%
CS(=O)(=O)N[C@H]1CCN(C(=O)C2CC2c2c(-c3c(F)cccc3F)csc2F)C1 (stereo partly drawn) [Example 368, N-[(3S)-1-{(1R,2R)-2-[4-(2,6-difluorophenyl)-2-fluorothiophen-3-yl]cyclopropane-1-carbonyl}pyrrolidin-3-yl]methanesulfonamide, or N-[(3S)-1-{(1S,2S)-2-[4-(2,6-difluorophenyl)-2-fluorothiophen-3-yl]cyclopropane-1-carbonyl}pyrrolidin-3-yl]methanesulfonamide]	97%
CCS(=O)(=O)NC[C@@H]1CCN1C(=O)[C@@H]1C[C@H]1c1ccccc1-c1c(F)cccc1F [Example 362, N-({(2S)-1-[(1R,2R)-2-(2′,6′-difluoro[1,1′-biphenyl]-2-yl)cyclopropane-1-carbonyl]azetidin-2-yl}methyl)ethanesulfonamide]	89%
CS(=O)(=O)NC1COCCN(C(=O)[C@@H]2C[C@H]2c2ccccc2-c2c(F)cccc2F)C1 (stereo partly drawn) [Example 249, N-{(6R)-4-[(1R,2R)-2-(2′,6′-difluoro[1,1′-biphenyl]-2-yl)cyclopropane-1-carbonyl]-1,4-oxazepan-6-yl}methanesulfonamide, or N-{(6S)-4-[(1R,2R)-2-(2′,6′-difluoro[1,1′-biphenyl]-2-yl)cyclopropane-1-carbonyl]-1,4-oxazepan-6-yl}methanesulfonamide]	105%
CS(=O)(=O)N[C@@H]1CCCCN(C(=O)C2CC2c2ccccc2-c2c(F)cccc2F)C1 (mixture of isomers) [Example 183, a mixture of N-{(3R)-1-[(1R,2R)-2-(2′,6′-difluoro[1,1′-biphenyl]-2-yl)cyclopropane-1-carbonyl]azepan-3-yl}methanesulfonamide and N-{(3R)-1-[(1S,2S)-2-(2′,6′-difluoro[1,1′-biphenyl]-2-yl)cyclopropane-1-carbonyl]azepan-3-yl}methanesulfonamide]	78%
CS(=O)(=O)NC12CC1CN(C(=O)C1CC1c1ccccc1-c1c(F)cccc1F)C2 (stereo not drawn) [Example 272, N-{3-[2-(2′,6′-difluoro[1,1′-biphenyl]-2-yl)cyclopropane-1-carbonyl]-3-azabicyclo[3.1.0]hexan-1-yl}methanesulfonamide optical isomer]	99%
O=C([C@@H]1C[C@@]1(F)c1ccc(F)cc1-c1c(F)cccc1F)N1C[C@@H](F)[C@H]1CNS(=O)(=O)NC1CC1 [Example 447, N-cyclopropyl-N′-({(2R,3R)-3-fluoro-1-[(1S,2S)-2-fluoro-2-(2′,5,6′-trifluoro[1,1′-biphenyl]-2-yl)cyclopropane-1-carbonyl]azetidin-2-yl}methyl)sulfuric diamide]	90%
O=C([C@@H]1C[C@@]1(F)c1ccc(F)cc1-c1c(F)cccc1F)N1C[C@@H](F)[C@H]1CNS(=O)(=O)CF [Example 430, 1-fluoro-N-({(2R,3R)-3-fluoro-1-[(1S,2S)-2-fluoro-2-(2′,5,6′-trifluoro[1,1′-biphenyl]-2-yl)cyclopropane-1-carbonyl]azetidin-2-yl}methyl)methanesulfonamide]	92%
CN(C)S(=O)(=O)N[C@H]1CCCN(C(=O)[C@@H]2C[C@H]2c2c(F)cccc2-c2c(F)cccc2F)C1 [Example 312, N,N-dimethyl-N′-{(3S)-1-[(1R,2R)-2-(2′,3,6′-trifluoro[1,1′-biphenyl]-2-yl)cyclopropane-1-carbonyl]piperidin-3-yl}sulfuric diamide]	100%
CS(=O)(=O)NC1CCCN(C(=O)C2CC2c2ccccc2-c2ccc(F)cc2F)CC1 (racemic) [Example 56, a mixture of rac-N-{(4R)-1-[(1R,2R)-2-(2′,4′-difluoro[1,1′-biphenyl]-2-yl)cyclopropane-1-carbonyl]azepan-4-yl}methanesulfonamide and rac-N-{(4S)-1-[(1R,2R)-2-(2′,4′-difluoro[1,1′-biphenyl]-2-yl)cyclopropane-1-carbonyl]azepan-4-yl}methanesulfonamide]	85%
